In experiment [1] the test system is tumor-bearing femora. Description: Microcomputed tomography of tumor-bearing femurs. It counts as in vivo, mouse. The protocol: Microcomputed tomography. Microcomputed tomography (MicroCT) analyses were performed on femurs from tumor inoculated mice or naïve mice using a VivaCT 80 scanner with the 55-kVp source (Scanco, Southeastern, Pa.) as previously described (Wang, C. et al. “NOTCH signaling in skeletal progenitors is critical for fracture repair.” The Journal of Clinical Investigation 126, 1471-1481 (2016); Cao, C. et al. “Increased Ca2+ signaling through CaV1.2 promotes bone formation and prevents estrogen deficiency-induced bone loss.” JCI Insight 2, (2017)). Quantification of microCT data was calculated for distal femurs of mice treated with vehicle or DMXAA. Parameters quantified included bone volume/total volume (BV/TV) and connectivity density (Conn.D) within a region of 100 slides and 200 slides proximal to the distal growth plate.

Experiment [2] has as its system tumor-infiltrating lymphocytes (TILs). Description: Flow cytometry of tumor-infiltrating lymphocytes in bone marrow. It counts as in vivo, mouse. As to conditions: 24 h after second injection. The protocol:
Flow cytometry. For analysis of immune subsets present within the bone marrow tumor microenvironment, bone marrow was collected as previously described followed by removal of RBC cells using RBC lysis buffer (Sigma, R7757). Cells were subsequently washed with PBS and resuspended in 2% paraformaldehyde in PBS for 10 minutes. Fixed cells were washed several times with PBS, followed by incubation in blocking buffer (1% anti-mouse-CD16/CD32, 2.4 G2, 2% FBS, 5% NRS, 1% triton ×100 and 2% NMS in HBSS; BD Bioscience) for 1 h at room temperature. Cells were subsequently stained with IL-17-FITC (1:20, rat, Miltenyi Biotec, 130-102-262), CD-3 APC/cy7 (1:200, rat, Biolegend, 100221), CD-4 APC (1:200, rat, Biolegend, 100411), FoxP3-PE (1:20, human, Miltenyl Biotec, 130-111-678), CD8a-FITC (1:200, rat, Biolegend, 100705), and CD11b-PE(1:200, rat, Biolegend, 101207) in blocking buffer for 1 h at room temperature. After staining, cells were washed in PBS with EDTA. Flow cytometry events were acquired by a BD FACS Canto II flow cytometer using the BD FACS Diva 8 software (BD Bioscience). Data were analyzed using Cytobank software (https://www.cytobank.org/cytobank).
A general note: A flow cytometer gives signals particle by particle.

The test system of experiment [3] is naïve mice or mice following spared nerve injury (SNI). Put plainly: Repeated i.t. STING agonist administration, nerve injury (SNI) model. Format: in vivo, mouse. The procedure:
Mouse pain models: The chemotherapy-induced peripheral neuropathy (CIPN) model of chronic neuropathic pain was established as we have done previously, using 8-10-week-old CD-1 (strain #022, Charles River) mice injected with paclitaxel (2 mg/kg i.p.) every other day, with 4 injections total. The chronic constriction injury (CCI) model of neuropathic pain was also produced using 8-10-week-old CD-1 under isoflurane anesthesia. Briefly, the right sciatic nerve was exposed above the hip and two ligatures (7-0 Prolene) were placed around the nerve 1 mm apart located proximal to the trifurcation. Ligatures were loosely tied until a subtle flick of the ipsilateral hind limb was observed. CD-1 mice were also used to establish the SNI model, which was generated by tightly ligating the tibial and common peroneal nerves followed by transection and removal of a ˜3 mm portion of the nerve. The sural nerve was left intact and contact or stretching of this nerve was avoided . To establish the syngeneic bone cancer pain (BCP) model, 8-10-week-old C57BL/6J mice (strain #000664, Jackson Labs) were utilized, as the Lewis lung carcinoma cell line LLC1 (LL/2; ATCC CRL-1642) was originally generated in C57BL/6J mice. Mice were anesthetized with isoflurane and the left leg was shaved, disinfected with 10% povidone-iodine, and a 1 cm superficial incision was made to expose the patellar ligament. A 25-gauge needle was inserted at the intercondylar notch of the left femur into the femoral cavity, followed by needle replacement with a 10 μl Hamilton syringe microinjector containing a 2 μl suspension of LLC cells (2×10^5 cells) followed by a 2 μl gelatin sponge solution to enable closure of the injection site. All mice were housed and monitored in accordance with AAALAC standards and Duke IACUC guidelines that pertained to each model.
Reflexive-based sensory testing in mice: All behavioral testing in mice was performed in a specialized humidity- and light-controlled mouse behavior facility maintained at 21-24° C., with testing conducted between the hours of 8:00-16:00. Mice were habituated to the testing environment for at least 2 days prior to baseline testing. All tests were performed by an experimenter who was blinded to experimental conditions, including genotypes and drug treatment. For multi-day experiments using STING agonists, mice were tested in the same room at approximately the same time each day. To measure mechanical sensitivity, mice were confined to individual chambers with non-transparent borders on an elevated mesh rack, preventing mice from visualizing or interacting with one another during the testing period. […] We determined the 50% paw withdrawal threshold using the up-down method. […]

In experiment [4] the test system is rhesus macaques (Macaca mulatta). Description: Menthol gel-induced cold allodynia, cold-water tail-withdrawal assay in non-human primates. Format: in vivo. The procedure: Behavioral testing in non-human primates: Five adult rhesus monkeys (Mucaca mulatta, 9.3-13.8 kg) were maintained in an AAALAC-approved facility at Wake Forest University School of Medicine in accordance with Wake Forest University IACUC regulations. Animals were individually housed in temperature- and humidity-controlled species-specific rooms maintained in a 12 h light/12 h dark cycle. All animals have been previously trained in the tail-withdrawal assay. All experimental procedures were conducted in accordance with the Guide for the Care and Use of Laboratory Animals standards adopted by the NIH. Drug infusion was through a previously implanted spinal catheter. Behavioral testing was performed by an experimenter who was blinded to the drug being administered. A cold-water tail-withdrawal assay was used to evaluate nociceptive responses to 16° C. water with a cut-off of 20 sec. 0.3 mL of 2% menthol gel (Millipore Sigma) was applied to the tail for 3 minutes to induce transient and reversible cold allodynia.

SMILES strings stand for the structures. “Also recorded” adds a separate entry of the source.

Regarding `Cc1ccc2c(=O)c3cccc(CC(=O)O)c3oc2c1C` [DMXAA, 2-(5,6-dimethyl-9-oxo-9H-xanthen-4-yl)acetic acid], in experiment [1] (d11), the “cortical bone volume/total volume (BV/TV)” value is given as “increased cortical bone volume/total volume (BV/TV)” and the “trabecular bone connectivity density (Conn.D)” value is “higher trabecular bone connectivity density (Conn.D)”. Besides, the “trabecular bone loss and cortical bone lesions (3D reconstruction)” value in experiment [1] (d11 after tumor implantation) is “less bone cancer-induced trabecular bone loss and fewer cortical bone lesions”. In addition, in experiment [2], the “proportion of CD4^+ T cells in bone marrow” value is “without significantly changing the proportion of (CD11b^− CD3^+) CD4^+ T cells”, the “proportion of CD8^+ T cells in bone marrow” value is “significantly increased the proportion of (CD11b^− CD3^+) CD8^+ T cells” and the “proportion of T^reg cells in bone marrow” value was “decreased the proportion of T^reg cells”. For the same compound, in experiment [3] (repeated i.t. 35 nmol, naïve mice or SNI mice), the “tolerance on repeated administration” value is recorded as “did not show signs of tolerance”. Also, in experiment [3] (repeated i.t. administration, SNI), the SNI-induced astrogliosis result is “attenuated SNI-induced astrogliosis”. Also, in experiment [3] (repeated i.t., starting at D12), the “cold allodynia at later timepoints” value was “significantly reduced” and the “mechanical allodynia at later timepoints” value was “significantly reduced”.

As to `Nc1ncnc2c1ncn2[C@@H]1O[C@@H]2COP(=O)([S-])O[C@@H]3[C@H](O)[C@@H](COP([O-])(=S)O[C@H]2[C@H]1O)O[C@H]3n1cnc2c(N)ncnc21.[Na+].[Na+]` (stereo partly drawn) [ADU-S100, (2′-5′)-[P(R)]-5′-O-[(R)-hydroxymercaptophosphinyl]-P-thioadenylyl-adenosine cyclic dinucleotide], the “2% menthol gel-induced cold allodynia” value in experiment [4] (i.t. catheter) was “long-lasting and dose-dependent analgesia; also recorded: attenuated 2% menthol gel-induced cold allodynia in a dose-dependent manner”. For the same compound, the “intrathecal dose producing analgesia in NHPs” value in experiment [4] (vs. 35 nmol in murine models) was 3 nmol.
